These results are taken from patent US20080182811A1, “METABOTROPIC GLUTAMATE RECEPTOR ACTIVATOR” (Ajinomoto Co., Inc., priority 2005, published 2008).

Holding throughout (format): cell-based
The target of experiment [1] is T1, group II metabotropic glutamate receptor subtype 3 (mGluR3) (Homo sapiens, UniProt Q14832).
T1 construct: expressed in transfected cells; host or cells: Xenopus oocytes injected with cRNAs of mGluR3, GIRK1 and GIRK4
Description: Electrophysiological measurement of response current in Xenopus oocytes injected with mGluR3, GIRK1 and GIRK4 cRNAs. The following applies: for mgluR3 (receptor activation by amino acid): amino acid alone, 1 mM, oocytes injected with mGluR3, GIRK1, GIRK4 cRNAs; for effect of amino acid (response current value) with cation vs amino acid alone: coexistence with calcium ion (10 mM), FIG. 7; for effect of amino acid (response current value) with cation vs amino acid alone / effect of amino acid (response current value) with nucleic acid and cation vs amino acid alone / effect of amino acid (response current value) with nucleic acid vs amino acid alone: glutamic acid 3 μM, aspartic acid 300 μM, leucine 1 mM; for effect of amino acid (response current value) with cation vs amino acid alone / effect of amino acid (response current value) with nucleic acid and cation vs amino acid alone: cysteine 1 mM; for effect of amino acid (response current value) with nucleic acid and cation vs amino acid alone: coexistence with inosinic acid (1 mM) and calcium ion (10 mM), FIG. 8; for effect of amino acid (response current value) with nucleic acid vs amino acid alone: coexistence with inosinic acid (1 mM), valine 1 mM, FIG. 6.

In experiment [2] the target is T2, group I metabotropic glutamate receptor subtype 5 (mGluR5) (Homo sapiens, UniProt P41594).
T2 construct: expressed in transfected cells; host or cells: Xenopus oocytes injected with cRNA
T2 sequence (P41594 21-1180 isoform P41594-2 limits assumed): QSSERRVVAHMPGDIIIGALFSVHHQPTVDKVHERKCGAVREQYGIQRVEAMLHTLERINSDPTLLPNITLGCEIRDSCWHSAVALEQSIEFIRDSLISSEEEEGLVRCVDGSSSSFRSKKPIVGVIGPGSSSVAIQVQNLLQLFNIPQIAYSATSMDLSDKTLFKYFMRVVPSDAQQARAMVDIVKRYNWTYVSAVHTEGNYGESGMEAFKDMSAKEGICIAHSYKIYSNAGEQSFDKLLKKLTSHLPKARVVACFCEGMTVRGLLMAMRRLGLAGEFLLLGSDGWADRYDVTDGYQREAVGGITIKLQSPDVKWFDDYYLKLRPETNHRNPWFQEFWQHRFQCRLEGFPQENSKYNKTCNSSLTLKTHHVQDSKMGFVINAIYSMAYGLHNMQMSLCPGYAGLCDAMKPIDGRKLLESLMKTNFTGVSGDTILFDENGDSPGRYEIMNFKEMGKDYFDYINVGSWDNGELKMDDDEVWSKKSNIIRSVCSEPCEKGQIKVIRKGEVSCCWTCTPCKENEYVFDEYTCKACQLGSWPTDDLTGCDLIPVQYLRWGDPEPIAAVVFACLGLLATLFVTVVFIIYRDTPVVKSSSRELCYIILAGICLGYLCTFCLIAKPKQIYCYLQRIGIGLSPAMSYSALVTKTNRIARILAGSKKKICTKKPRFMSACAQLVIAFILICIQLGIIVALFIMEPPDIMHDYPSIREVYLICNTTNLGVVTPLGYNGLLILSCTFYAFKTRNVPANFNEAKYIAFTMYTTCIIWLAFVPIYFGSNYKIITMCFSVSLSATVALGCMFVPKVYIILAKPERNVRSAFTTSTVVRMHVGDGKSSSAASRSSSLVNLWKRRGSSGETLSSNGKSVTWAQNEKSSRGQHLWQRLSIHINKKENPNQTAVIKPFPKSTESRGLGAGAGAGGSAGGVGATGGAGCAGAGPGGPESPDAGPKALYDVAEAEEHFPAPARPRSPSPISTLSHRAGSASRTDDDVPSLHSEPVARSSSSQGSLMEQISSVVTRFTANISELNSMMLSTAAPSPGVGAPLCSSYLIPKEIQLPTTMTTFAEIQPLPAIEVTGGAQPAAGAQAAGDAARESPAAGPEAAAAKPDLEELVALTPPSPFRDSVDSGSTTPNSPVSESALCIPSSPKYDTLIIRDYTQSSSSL
In words: Electrophysiological measurement of response current in Xenopus oocytes injected with mGluR5 cRNA. The following applies: aspartic acid 300 μM, valine 3 mM; for mGluR5 (receptor activation by amino acid): amino acid alone, others 10 mM, oocytes injected with mGluR5 cRNA; for mGluR5 (receptor activation by amino acid) / effect of amino acid (response current value) with nucleic acid and cation vs amino acid alone: cysteine 1 mM; for effect of amino acid (response current value) with nucleic acid and cation vs amino acid alone: coexistence with both inosinic acid (1 mM) and calcium ion (10 mM), FIG. 4; for effect of amino acid (response current value) with nucleic acid and cation vs amino acid alone / effect of amino acid (response current value) with cation vs amino acid alone / effect of amino acid (response current value) with nucleic acid vs amino acid alone: glutamic acid 3 μM; for effect of amino acid (response current value) with cation vs amino acid alone: coexistence with calcium ion (10 mM), FIG. 3; for effect of amino acid (response current value) with cation vs amino acid alone / effect of amino acid (response current value) with nucleic acid vs amino acid alone: cysteine 3 mM; for effect of amino acid (response current value) with nucleic acid vs amino acid alone: coexistence with inosinic acid (1 mM), FIG. 2. The source says: A metabotropic glutamate receptor subtype 5 (mGluR5) was used as a group I metabotropic glutamate receptor. A metabotropic glutamate receptor subtype 3 (mGluR3) was used as a representative of group II metabotropic glutamate receptors. A metabotropic glutamate receptor subtype 8 (mGluR8) was used as a representative of group III metabotropic glutamate receptors. The genes of the three metabotropic glutamate receptors, G-protein-gated inward rectifier K channel 1 (GIRK1), and G-protein-gated inward rectifier K channel 4 (GIRK4) were prepared as follows.
PCR was performed using a cDNA derived from the human brain (manufactured by Clontech) as a material and using Pfu ultra DNA Polymerase (manufactured by Stratagene) under the following conditions. After a 3-minute reaction at 94° C., a cycle of 94° C./30 seconds, 55° C./30 seconds, and 72° C./2 minutes was repeated 35 times, followed by a 7-minute reaction at 72° C. Amplified PCR products were subjected to agarose gel electrophoresis, stained with a DNA staining reagent and detected by UV irradiation. The lengths of the PCR products were confirmed by comparing the lengths with a DNA marker having a known size, which was electrophoresed simultaneously with the PCR products. A plasmid vector pBR322 was cleaved with a restriction enzyme EcoRV (manufactured by TAKARA BIO INC.). The respective gene fragments amplified by PCR were ligated to the cleaved site using Ligation Kit (manufactured by Promega). Escherichia coli DH5a strain was transformed with the reaction solution, and transformants carrying plasmids where the PCR products were cloned were selected. The PCR amplified products were identified by DNA sequence analysis. The recombinant plasmids were used as a template to prepare cRNA of each of the receptor genes using a cRNA preparation kit (Ambion, Inc.).
Special grade reagents of twenty-three L-amino acids including alanine, arginine, asparagine, aspartic acid, cysteine, glutamine, glutamic acid, glycine, histidine, isoleucine, leucine, lysine, methionine, phenylalanine, proline, serine, threonine, tryptophan, tyrosine, valine, ornithine, taurine, and hydroxyproline were used. Special grade reagents of inosine and calcium chloride were used. Glutamine and cysteine were prepared every time before use, and the other reagents were prepared and stored at −20° C. A solution for dissolving amino acids, nucleic acids, and cations, a solution for preparing Xenopus oocytes, and a solution for culturing Xenopus oocytes have the following composition. NaCl 96 mM/KCl 2 mM/MgCl2 1 mM/CaCl2 1.8 mM/Hepes 5 mM/pH 7.2.
Ca ion concentration-dependent Cl ion current measurement method using a Xenopus oocyte expression system was used as a method of measuring the signaling via a metabotropic glutamate receptor. The abdomen of a Xenopus were incised, and the egg mass was removed and treated with a 1% collagenase solution at 20° C. for 2 hours, to thereby obtain individual oocytes. To one oocyte was introduced 50 nl of 1 μg/μl receptor cRNA or 50 nl of distilled water using a microcapillary, followed by culture at 18° C. for 2 or 3 days. This culture was performed using a solution obtained by adding 2 mM pyruvic acid, 10 U/ml penicillin, and 10 μg/ml streptomycin to the solution shown in Example 2. After completion of culture, a ligand solution was added to oocytes injected with the cRNA and oocytes injected with distilled water, respectively. Electrophysiological measurement was performed using an amplifier Geneclamp 500 (manufactured by Axon Instruments, Inc.) and recording software AxoScope 9.0 (manufactured by Axon Instruments, Inc.). The oocytes were subjected to membrane potential fixation at −70 mV by a two-electrode membrane potential fixation method, and intracellular currents via Ca ion concentration-dependent Cl ion were measured. The maximal value of the intracellular currents was defined as a response current value.

For experiment [3], the target named is T3, group III metabotropic glutamate receptor subtype 8 (mGluR8) (Homo sapiens, UniProt O00222).
T3 construct: expressed in transfected cells; host or cells: Xenopus oocytes injected with cRNAs of mGluR8, GIRK1 and GIRK4
T3 sequence (O00222 34-908): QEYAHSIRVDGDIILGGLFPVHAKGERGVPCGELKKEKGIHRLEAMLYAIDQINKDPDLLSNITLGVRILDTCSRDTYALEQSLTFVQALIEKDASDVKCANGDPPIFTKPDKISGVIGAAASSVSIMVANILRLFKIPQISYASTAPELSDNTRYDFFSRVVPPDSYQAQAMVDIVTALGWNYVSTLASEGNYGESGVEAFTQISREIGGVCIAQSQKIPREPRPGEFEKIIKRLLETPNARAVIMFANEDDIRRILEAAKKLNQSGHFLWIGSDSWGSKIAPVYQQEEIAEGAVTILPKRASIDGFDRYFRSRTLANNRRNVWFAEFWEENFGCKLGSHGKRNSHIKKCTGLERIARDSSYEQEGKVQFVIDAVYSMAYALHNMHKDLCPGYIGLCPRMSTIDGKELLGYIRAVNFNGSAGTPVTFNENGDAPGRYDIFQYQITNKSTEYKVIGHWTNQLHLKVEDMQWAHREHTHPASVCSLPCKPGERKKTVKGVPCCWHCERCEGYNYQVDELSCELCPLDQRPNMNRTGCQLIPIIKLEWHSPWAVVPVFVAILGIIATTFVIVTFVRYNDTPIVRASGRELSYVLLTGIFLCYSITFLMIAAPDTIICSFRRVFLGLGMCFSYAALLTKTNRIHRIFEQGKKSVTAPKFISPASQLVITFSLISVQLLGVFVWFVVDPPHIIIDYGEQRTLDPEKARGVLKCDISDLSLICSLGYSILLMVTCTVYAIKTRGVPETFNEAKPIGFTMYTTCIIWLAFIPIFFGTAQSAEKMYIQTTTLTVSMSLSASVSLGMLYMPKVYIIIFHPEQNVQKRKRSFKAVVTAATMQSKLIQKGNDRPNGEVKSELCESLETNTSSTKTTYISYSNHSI
Description: Electrophysiological measurement of response current in Xenopus oocytes injected with mGluR8, GIRK1 and GIRK4 cRNAs. The following applies: cysteine 1 mM; for mgluR8 (receptor activation by amino acid): amino acid alone, aspartic acid 300 μM, valine 3 mM, others 10 mM, oocytes injected with mGluR8, GIRK1, GIRK4 cRNAs; for effect of amino acid (response current value) with nucleic acid and cation vs amino acid alone: coexistence with both inosinic acid (1 mM) and calcium ion (10 mM), FIG. 12; for effect of amino acid (response current value) with nucleic acid and cation vs amino acid alone / effect of amino acid (response current value) with cation vs amino acid alone / effect of amino acid (response current value) with nucleic acid vs amino acid alone: glutamic acid 3 μM; for effect of amino acid (response current value) with cation vs amino acid alone: coexistence with calcium ion (10 mM), FIG. 11; for effect of amino acid (response current value) with nucleic acid vs amino acid alone: coexistence with inosinic acid (1 mM), FIG. 10.

SMILES strings stand for the structures.

T1 sequence (Q14832 23-879): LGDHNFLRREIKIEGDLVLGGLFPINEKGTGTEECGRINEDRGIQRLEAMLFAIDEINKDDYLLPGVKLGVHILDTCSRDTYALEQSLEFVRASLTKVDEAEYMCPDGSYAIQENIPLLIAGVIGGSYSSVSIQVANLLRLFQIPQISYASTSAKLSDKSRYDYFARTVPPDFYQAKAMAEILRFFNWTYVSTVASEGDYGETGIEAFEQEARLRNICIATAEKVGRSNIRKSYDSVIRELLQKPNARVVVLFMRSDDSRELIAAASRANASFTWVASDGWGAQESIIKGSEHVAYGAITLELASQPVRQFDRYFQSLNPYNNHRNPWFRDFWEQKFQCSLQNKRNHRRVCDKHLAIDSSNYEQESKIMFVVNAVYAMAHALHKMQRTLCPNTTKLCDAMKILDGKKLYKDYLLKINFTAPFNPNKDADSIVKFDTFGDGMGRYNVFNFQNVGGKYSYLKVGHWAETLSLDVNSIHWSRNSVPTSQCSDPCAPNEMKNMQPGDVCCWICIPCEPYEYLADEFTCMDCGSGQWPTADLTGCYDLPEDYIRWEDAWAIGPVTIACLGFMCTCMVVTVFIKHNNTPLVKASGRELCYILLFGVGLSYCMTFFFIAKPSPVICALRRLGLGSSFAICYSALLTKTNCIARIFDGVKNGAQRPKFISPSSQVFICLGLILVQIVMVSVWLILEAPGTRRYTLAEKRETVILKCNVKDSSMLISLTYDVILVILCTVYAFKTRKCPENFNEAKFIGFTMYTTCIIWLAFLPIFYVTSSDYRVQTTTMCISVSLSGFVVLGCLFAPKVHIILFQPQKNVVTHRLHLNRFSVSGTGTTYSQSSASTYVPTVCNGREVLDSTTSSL

Regarding `N[C@@H](CC(=O)O)C(=O)O` [Aspartic acid, aspartic acid], in experiment [1], the “mgluR3 (receptor activation by amino acid)” value (“mgluR3” below) is listed as “Activated”; the “effect of amino acid (response current value) with cation vs amino acid alone” value (“effect … with cation vs amino acid alone” for short) is given as “enhanced”; the “effect of amino acid (response current value) with nucleic acid and cation vs amino acid alone” value was “enhanced”; the “effect of amino acid (response current value) with nucleic acid vs amino acid alone” value (shortened to “effect … with nucleic acid vs amino acid alone”) is recorded as “enhanced”. Moreover, the “mgluR3” value in experiment [1] (listed as aspartic acid) is reported as “effects of enhancing the activation”. In experiment [2], the “mGluR5 (receptor activation by amino acid)” value (from here on “mGluR5”) is “Activated”; the “effect of amino acid (response current value) with nucleic acid and cation vs amino acid alone” value is listed as “enhanced”; the “effect … with cation vs amino acid alone” value is reported as “enhanced”; the “effect … with nucleic acid vs amino acid alone” value was “enhanced”. Also, the “mGluR5” value in experiment [2] (listed as aspartic acid) is “effects of enhancing”.

`N[C@@H](CCC(=O)O)C(=O)O` [Glutamic acid, glutamic acid, reference compound]: in experiment [3], the “mgluR8 (receptor activation by amino acid)” value (from here on “mgluR8”) is listed as “Activated”; the “effect of amino acid (response current value) with nucleic acid and cation vs amino acid alone” value is on record as “enhanced”; the “effect … with cation vs amino acid alone” value is “enhanced”; the “effect … with nucleic acid vs amino acid alone” value is given as “enhanced”. In addition, the “mgluR8” value in experiment [3] (listed as glutamic acid) is “effects of activating”. Also, in experiment [1], the “mgluR3” value is listed as “Activated”; the “effect … with cation vs amino acid alone” value is recorded as “enhanced”; the “effect of amino acid (response current value) with nucleic acid and cation vs amino acid alone” value was “enhanced”; the “effect … with nucleic acid vs amino acid alone” value is recorded as “enhanced”. Also, in experiment [1] (listed as glutamic acid), the “mgluR3” value is given as “effects of enhancing the activation”. Moreover, in experiment [2], the “mGluR5” value was “Activated”; the “effect of amino acid (response current value) with nucleic acid and cation vs amino acid alone” value is “enhanced”; the “effect … with cation vs amino acid alone” value is given as “enhanced”; the “effect … with nucleic acid vs amino acid alone” value is “enhanced”. Besides, in experiment [2] (listed as glutamic acid), the “mGluR5” value is “effects of enhancing”.

As to `N[C@@H](CS)C(=O)O` [Cysteine, cysteine], in experiment [3], the “mgluR8” value is “Activated”; the “effect of amino acid (response current value) with nucleic acid and cation vs amino acid alone” value is “enhanced”; the “effect … with cation vs amino acid alone” value is listed as “enhanced”; the “effect … with nucleic acid vs amino acid alone” value is “enhanced”. In experiment [3] (listed as cysteine), the “mgluR8” value was “effects of activating”. In experiment [1], the “mgluR3” value is “Activated”; the “effect … with cation vs amino acid alone” value is “enhanced”; the “effect of amino acid (response current value) with nucleic acid and cation vs amino acid alone” value is listed as “enhanced”. In addition, the “mgluR3” value in experiment [1] (listed as cysteine) is listed as “effects of enhancing the activation”. Moreover, in experiment [2], the “mGluR5” value was “Activated”; the “effect of amino acid (response current value) with nucleic acid and cation vs amino acid alone” value was “enhanced”; the “effect … with cation vs amino acid alone” value is reported as “enhanced”; the “effect … with nucleic acid vs amino acid alone” value was “enhanced”. Also, in experiment [2] (listed as cysteine), the “mGluR5” value was “effects of enhancing”.

Turning to `CC(C)[C@H](N)C(=O)O` [Valine, valine], in experiment [1], the “mgluR3” value is listed as “Activated” and the “effect … with nucleic acid vs amino acid alone” value was “enhanced”. Moreover, the “mgluR3” value in experiment [1] (listed as valine) is given as “effects of enhancing the activation”. For the same molecule, in experiment [2], the “mGluR5” value is reported as “Activated”; the “effect of amino acid (response current value) with nucleic acid and cation vs amino acid alone” value is “enhanced”; the “effect … with cation vs amino acid alone” value is reported as “enhanced”; the “effect … with nucleic acid vs amino acid alone” value was “enhanced”. The “mGluR5” value in experiment [2] (listed as valine) is reported as “effects of enhancing”.
